Tests used:
recombinant human PAI-1 [1] = biological target: T1, recombinant human PAI-1 (Homo sapiens, UniProt P05121); assay: PAI-1 inhibitory activity, Test Method A (tPA fluorogenic substrate, Tris buffer pH8.0, 37 C); assay type: biochemical; details: for IC50: 50% inhibitory concentration of PAI-1 activity, according to the aforementioned method; for Inhibitory Ratio at 25 μM (%): Test Method A
rat thrombosis model = assay: Tests in rat thrombosis model (carotid shunt, thrombus weight); assay type: in vivo; details: intraperitoneally 30 mg/kg/day for 8 days beforehand, control 94.9±3.3 mg, n=4, p<0.01
Description: Catheters for shunt were inserted into the right carotid artery and the left carotid artery of a rat, blood was circulated for 30 minutes, and weights of thromboses adhered to threads placed inside the catheters were measured.

[2] = tested on: mouse heart transplantation model; assay: Tests in mouse (murine) heart transplantation model; assay type: in vivo; details: p<0.05
recombinant human PAI-1 [3] = biological target: T1, recombinant human PAI-1; assay: Inhibition of complex formation of PAI-1 and tPA (SDS-PAGE); assay type: biochemical; details: 100 μM concentration
Description: To a 2.5 μL solution obtained by diluting a DMSO solution of the test compound at 4-fold concentration of the test concentration with PBS(-), 5 μL of 150 nM recombinant human PAI-1 solution adjusted with a phosphate buffer (pH6.6, 0.05M Sodium Phosphate, 0.1 M NaCl, 1 mM EDTA) was added, and reacted for 5 minutes at 37° C. […] of 600 nM recombinant human one-chain tPA solution adjusted with PBS(-) was added, and further reacted for 5 minutes at 37° C. 10 μL of stop buffer (1.25 mM Tris-HCl pH6.8, 4% SDS, 0.01% BPB, 14% Glycerol) was added, heated for 30 seconds at 100° C., and then the total amount of 20 μL was applied to 10% SDS-PAGE gel electrophoresis. When the test compound was not added as being a control, a band of PAI-1-tPA complex was observed.

recombinant human PAI-1 [4] = biological target: T1, recombinant human PAI-1; assay: PAI-1 inhibitory activity, Test Method B (tPA fluorogenic substrate, Tris buffer pH7.5, room temperature); assay type: biochemical; details: 25 μM test compound; Test Method B (cells marked "method B")
Description: To a 90 μL solution obtained by diluting a DMSO solution of the test compound at 2.2-fold concentration of the test concentration (=final concentration when fluorogenic substrate was added) with a Tris buffer (pH7.5), 10 μL of 120 nM recombinant human PAI-1 solution adjusted with pH6.6 phosphate buffer was added, and incubated for 15 minutes at room temperature. 50 μL of 800IU/ml two-chain tPA (activity standard) solution adjusted with Tris buffer (pH7.5) was added, and incubated for 30 minutes at room temperature. […] Fluorescence was measured at the excitation wavelength=360 nm, emission wavelength=460 or 465 nm using a microplete reader (SPECTRAFLUOR or GENios) by TECAN. The fluorescence intensities in the presence of the PAI-1 as the control (DMSO) or in the absence of the PAI-1 (tPA alone) were taken as 100% and 0% of PAI-1 activities, respectively, and inhibitory ratios of PAI-1 activities in the presence of the test compound were obtained. […]
In either method of Test Method A or B, fluorescence of tPA activation by the test compound in the absence of PAI-1 or that of the test compound was not observed.
In the following table, “method B” described in the column of the inhibitory ratio means that the results were measured by the above Test Method B. The other results indicated were measured by the above Test Method A.

T1 sequence (P05121 24-402): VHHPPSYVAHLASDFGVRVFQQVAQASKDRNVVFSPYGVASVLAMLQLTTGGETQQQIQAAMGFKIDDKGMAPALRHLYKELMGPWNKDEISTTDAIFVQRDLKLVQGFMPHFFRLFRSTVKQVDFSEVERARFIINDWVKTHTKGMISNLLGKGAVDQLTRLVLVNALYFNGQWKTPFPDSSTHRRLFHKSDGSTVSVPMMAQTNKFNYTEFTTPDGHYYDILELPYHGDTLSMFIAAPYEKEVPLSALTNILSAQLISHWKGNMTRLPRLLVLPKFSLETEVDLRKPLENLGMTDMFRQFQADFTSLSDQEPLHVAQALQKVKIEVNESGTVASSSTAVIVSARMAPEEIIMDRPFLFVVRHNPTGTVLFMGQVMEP

SMILES | IC50 (recombinant human PAI-1 [1]) [µM] | Inhibitory Ratio at 25 μM (%) (recombinant human PAI-1 [1]; test compound 25 μM) | inhibition of the complex formation of PAI-1 and tPA observed with SDS-PAGE (recombinant human PAI-1 [3]) | Inhibitory Ratio at 25 μM (%) (recombinant human PAI-1 [4]) | further results
O=C1SC(=Cc2cc(O)c(O)c(O)c2)C(=O)N1Cc1ccc(Cl)c(Cl)c1 [compound 10, 5-(3,4,5-Trihydroxybenzylidene)-3-(3,4-dichlorobenzyl)thiazolidine-2,4-dione] | 0.45 | >99 | completely inhibited | – | weight of thrombus (rat thrombosis model): 67.2 ± 6.3 mg; ratio of fibrous lesion 60 days after the transplantation ([2]; class II mismatch allograft, control 44.5±2.7%, n=5): 18.8±2.2%; Vascular endothelial hyperplasia (ratio of thickened endothelium to the internal elastic lamina); incidence of vascular intimal thickening ([2]; class II mismatch allograft, control 64.5±5.8%): 21.7±4.9%; graft survival ([2]; major mismatch allograft Balb/c to C57BL/6, intraperitoneally 20 mg/kg/day, control 7.2±0.2 days): 9.0 ± 0.7 days
O=C1SC(=Cc2ccc(O)c(O)c2)C(=O)N1Cc1ccc(Cl)cc1Cl [compound 23, 5-(3,4-dihydroxybenzylidene)-3-(2,4-dichlorobenzyl)thiazolidine-2,4-dione] | 0.25 | >99 | completely inhibited | – | melting point: 202 °C (dec.)
O=C(O)c1cccc(C=C2SC(=O)N(Cc3ccc(Cl)c(Cl)c3)C2=O)c1 [compound 350, 5-(3-Carboxybenzylidene)-3-(3,4-dichlorobenzyl)thiazolidine-2,4-dione] | – | – | – | 75 (method B) % | –
COC(=O)c1ccc(CN2C(=O)SC(=Cc3ccc(O)c(C(=O)O)c3)C2=O)cc1 [compound 409, 5-(3-Carboxy-4-hydroxybenzylidene)-3-(4-methoxycarbonylbenzyl)-thiazolidine-2,4-dione] | – | – | – | 23 (method B) % | –
CCOC1=NN(c2ccc([N+](=O)[O-])cc2)C(=O)C1=Cc1cc(/C=C/c2ccccc2)ccc1O [compound 517] | 0.48 | – | completely inhibited | – | Inhibitory Ratio at 25 μM (%) (recombinant human PAI-1 [1]; 25 μM test compound): >99%

From US20070276011A1, “Plasminogen Activator Inhibitor-1 Inhibitor” (priority 2003, published 2007)
